Experimental data published in patent US20160166648A1, “Treatment of Multiple Sclerosis With Combination of Laquinimod and Interferon-Beta” (Teva Pharmaceutical Industries, Ltd., priority 2011, published 2016).
Several values for one entry are separate records, joined by “and”; a condition that tells them apart may be missing. Identical values can stand only once. Like-named read-outs stand apart in the source and are kept apart here.

Columns and labels:
[1] = tested on: MOG induced EAE in C57 BI mice; assay: Interferon-β s.c. daily alone or in combination with laquinimod in chronic MOG induced EAE; assay type: in vivo, C57BL/6 mice; conditions: for Activity compared to Laquinimod: Table 6
[2] = in vivo; cited from earlier work
[3] = tested on: Multiple Sclerosis; conditions: two phase III trials; cited from earlier work
[4] = Laquinimod 10 mg/kg oral QD, compared to vehicle
[5] = Laquinimod 25 mg/kg oral QD, compared to laquinimod (10 mg/kg)
[6] = Laquinimod 25 mg/kg oral QD, compared to vehicle

CCN(C(=O)c1c(O)c2c(Cl)cccc2n(C)c1=O)c1ccccc1 [Laquinimod]
Mean Onset [1]: 21.4 ± 8.2 days
GMS value (group mean score) ([1]; Laquinimod 10 mg/kg oral QD): 0.8 ± 0.8 and 0.8
Incidence ([1]; Laquinimod 10 mg/kg oral QD): 8/13
MMS value (mean maximal score) ([1]; Laquinimod 10 mg/kg oral QD): 1.8 ± 1.7
Mean Duration ([1]; Laquinimod 10 mg/kg oral QD): 9.2 ± 8.3 days
Mean Onset ([1]; Laquinimod 10 mg/kg oral QD): 21.3 ± 8.2 days
Mortality ([1]; Laquinimod 10 mg/kg oral QD): 0/13
% inhibition 1 (incidence) [1, 4]: 38.5%
% inhibition 2 (MMS) [1, 4]: 43.8%
% inhibition 3 (GMS); Activity [1, 4]: 60%
% inhibition 3 (GMS); Activity ([1]; Laquinimod 10 mg/kg oral QD, compared to vehicle, listed as laquinimod): 60%
GMS value (group mean score) ([1]; Laquinimod 10 mg/kg oral QD, listed as Laquinmod): 0.8 ± 0.8
Activity compared to Laquinimod ([1]; Laquinimod 10 mg/kg): 60%
GMS value (group mean score) ([1]; Laquinimod 25 mg/kg oral QD): 0.3
Incidence ([1]; Laquinimod 25 mg/kg oral QD): 5/15
MMS value (mean maximal score) ([1]; Laquinimod 25 mg/kg oral QD): 0.8 ± 1.3
Mean Duration ([1]; Laquinimod 25 mg/kg oral QD): 5.0 ± 7.4 days
Mean Onset ([1]; Laquinimod 25 mg/kg oral QD): 25.7 ± 7.8 days
Mortality ([1]; Laquinimod 25 mg/kg oral QD): 0/15
% inhibition 1 (incidence) [1, 5]: 37.5%
% inhibition 2 (MMS) [1, 5]: 55.5%
% inhibition 3 (GMS) [1, 5]: 62.5%
% inhibition 1 (incidence) [1, 6]: 61.5%
% inhibition 2 (MMS) [1, 6]: 75.0%
% inhibition 3 (GMS); Activity [1, 6]: 85%
% inhibition 3 (GMS); Activity ([1]; Laquinimod 25 mg/kg oral QD, compared to vehicle, listed as Laquiniomd): 85.0%
GMS value (group mean score) ([1]; Laquinimod 25 mg/kg oral QD, listed as Laquiniomd): 0.3 ± 0.5
GMS value (group mean score) ([1]; Laquinimod 25 mg/kg oral QD, listed as Laquinmod): 0.3 ± 0.5
Activity compared to Laquinimod ([1]; Laquinimod 25 mg/kg): 85%
Activity compared to interferon-β (500,000 IU/mouse) ([1]; Laquinimod 25 mg/kg, according to GMS): 66.7%^
Oral bioavailability [2]: high
Safety and tolerability profile [3]: favorable
